From patent publication US20110230472A1, “RING-FUSED AZOLE DERIVATIVE HAVING PI3K-INHIBITING ACTIVITY” (Shionogi & Co., Ltd., priority 2008, published 2011)

Molecular target: PI-3 kinase γ (Homo sapiens, UniProt P48736)
Test: PI3Kγ inhibitory activity, PI3-kinase HTRF assay (inhibition ratio)
Assay type: biochemical
Settings: 0.5 h; for inhibition at 50 µM: compound at 50 μM
Procedure: The PI3Kγ inhibitory activity of a compound was evaluated using PI3-kinase HTRF™ assay (Millipore) according to the following procedure:
To each well of a testing plate, 5 μL of a compound solution containing 10% DMSO (200 μmol/L or 40 μmol/L as the concentration of the compound), 5 μL of a substrate solution (40 μmol/L phosphatidylinositol (4,5)-bisphosphate, 20 mmol/L MgCl2, 10 mmol/L DTT), and 5 μL of a enzyme solution (80 μg/mL PI-3 kinase γ, 10 mmol/L MgCl2, 5 mmol/L DTT) were added, and then allowed to stand for 10 minutes.
Then, 5 μL of a reaction solution (40 μmol/L ATP, 10 mmol/L MgCl2, 5 mmol/L DTT) was added thereto. After reacting for 30 minutes at room temperature, 5 μL of a solution containing EDTA and biotinylated phosphatidylinositol (3,4,5)-triphosphate were added to quench the reaction.
5 μL of a detection reagent containing a europium-labeled anti-GST antibody, the GST-tagged PH domain, and allophycocyanin-labeled streptavidin was added thereto. After 18 hours, HTRF (excitation wavelength: 330 nm, measured wavelengths: 620 nm and 665 nm) was measured.
HTRF ratio was defined as the value obtained by dividing the amount of fluorescence obtained at the measured wavelength 665 nm by the amount of fluorescence obtained at 620 nm. The HTRF ratio in the absence of a compound was defined as 100% activity and the HTRF ratio in the absence of PI-3 kinase γ was defined as 0% activity to calculate an inhibition ratio which was defined as the PI3Kγ inhibitory activity of a compound at 50 μmol/L or 10 μmol/L.

Chain of PI-3 kinase γ (P48736 whole entry): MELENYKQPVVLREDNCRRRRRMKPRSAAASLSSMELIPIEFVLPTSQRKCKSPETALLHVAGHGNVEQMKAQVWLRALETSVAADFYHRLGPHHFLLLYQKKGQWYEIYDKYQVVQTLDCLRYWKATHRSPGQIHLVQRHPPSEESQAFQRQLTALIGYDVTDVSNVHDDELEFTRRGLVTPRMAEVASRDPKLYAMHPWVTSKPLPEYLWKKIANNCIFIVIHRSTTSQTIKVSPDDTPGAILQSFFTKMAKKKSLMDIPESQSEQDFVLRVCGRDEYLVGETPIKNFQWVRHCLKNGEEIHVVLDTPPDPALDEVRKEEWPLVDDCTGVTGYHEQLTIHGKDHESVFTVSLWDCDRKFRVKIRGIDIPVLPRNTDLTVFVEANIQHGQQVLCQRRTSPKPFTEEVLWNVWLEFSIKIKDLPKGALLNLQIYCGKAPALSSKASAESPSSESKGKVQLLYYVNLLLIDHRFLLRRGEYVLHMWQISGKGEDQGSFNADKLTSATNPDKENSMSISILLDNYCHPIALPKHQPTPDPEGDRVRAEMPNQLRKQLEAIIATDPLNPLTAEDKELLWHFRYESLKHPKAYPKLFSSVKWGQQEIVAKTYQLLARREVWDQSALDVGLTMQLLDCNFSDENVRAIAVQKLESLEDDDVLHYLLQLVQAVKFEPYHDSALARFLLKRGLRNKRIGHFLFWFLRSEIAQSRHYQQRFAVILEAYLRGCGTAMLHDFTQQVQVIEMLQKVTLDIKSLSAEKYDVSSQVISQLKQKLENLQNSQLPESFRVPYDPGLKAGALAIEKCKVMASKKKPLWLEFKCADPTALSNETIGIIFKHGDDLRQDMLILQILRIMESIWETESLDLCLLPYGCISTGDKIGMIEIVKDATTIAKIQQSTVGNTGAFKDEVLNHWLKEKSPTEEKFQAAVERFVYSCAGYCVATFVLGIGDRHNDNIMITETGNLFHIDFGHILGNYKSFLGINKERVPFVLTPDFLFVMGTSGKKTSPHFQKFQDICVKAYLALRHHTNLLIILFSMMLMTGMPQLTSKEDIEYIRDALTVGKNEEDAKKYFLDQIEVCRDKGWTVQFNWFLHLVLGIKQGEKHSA

Row | SMILES | inhibition at 50 µM (PI3Kγ) | inhibition at 10 µM (compound at 10 μmol/L) | other results
1 | CNC(=O)Nc1cc2n(n1)CCN2c1ccc(OC)cc1 [Compound I-114] | 83% | – | –
2 | CC(C)NC(=O)c1cc(C(=O)Nc2cc3n(n2)CCN3c2ccc3c(c2)CCN(C)C3=O)cs1 [Compound I-419] | – | 83% | –
3 | COc1cc(N2CCc3nc(NC(=O)[C@@H](O)c4ccccc4)sc3C2)nc(OC)n1 [Compound I-258] | 92% | – | –
4 | COc1cc(N2CCc3nc(NC(=O)NCC(=O)NCC(C)(C)C)sc3C2)nc(OC)n1 [Compound I-285] | – | – | inhibition at 10 µM (PI3Kγ, compound at 10 μM): ≥ 95%
5 | CNC(=O)Nc1cc2n(n1)CCN2c1cc(Nc2ccccc2)cc(C(=O)O)c1 [Compound I-166] | ≥ 95% | – | –
6 | CC(C)N(C)C(=O)c1cc(C(=O)Nc2cc3n(n2)CCN3c2ccc3c(c2)CCN(C)C3=O)cs1 [Compound I-433] | – | ≥ 95% | –
7 | COc1cc(N2CCc3nc(NC(=O)NCCC(=O)Nc4ccccc4)sc3C2)nc(OC)n1 [Compound I-273] | – | – | inhibition at 10 µM (PI3Kγ, compound at 10 μM): ≥ 95%
8 | CNC(=O)Nc1cc2n(n1)CCN2c1cc(C#CC2CCN(C(=O)OC(C)(C)C)CC2)cc(C(=O)N2CCOCC2)c1 [Compound I-250] | ≥ 95% | – | –
9 | CN1CCc2cc(N3CCn4nc(NC(=O)NCCC(=O)OC(C)(C)C)cc43)ccc2C1=O [Compound I-530] | – | 92% | –
10 | COc1cc(N2CCc3nc(NC(=O)NCCC(=O)N4CCC[C@H]4C(=O)NC(C)(C)C)sc3C2)nc(OC)n1 [Compound I-311] | – | ≥ 95% | –
11 | COc1cc(N2CCc3nc(NC(=O)c4ccc(C)o4)sc3C2)nc(OC)n1 [Compound I-456] | – | 87% | –
12 | COc1cc(N2CCc3nc(NC(=O)N4CCC(=O)N5CCOCC5C4=O)sc3C2)nc(OC)n1 (stereo not drawn) [Compound I-304] | – | 89% | –
13 | CC(=O)NCCC(=O)Nc1cc2n(n1)CCN2c1cccc(Cl)c1 [Compound I-244] | 87% | – | –
14 | CNC(=O)Nc1cc2n(n1)CCN2C(=O)c1ccc2c(c1)CCO2 [Compound I-35] | 77% | – | –
15 | COc1cc(N2CCc3nc(NC(=O)NCC(C)C(=O)NC(C)C)sc3C2)nc(OC)n1 (stereo not drawn) [Compound I-547] | – | ≥ 95% | –
16 | CNC(=O)Nc1cc2n(n1)CCN2c1cc(Nc2ccccc2)cc(C(=O)OC)c1 [Compound I-162] | ≥ 95% | – | –
17 | CC(C)NC(=O)c1ccccc1NC(=O)Nc1nc2c(s1)CN(C(=O)c1ccccc1)CC2 [Compound I-488] | – | 88% | –
18 | CNC(=O)Nc1cc2n(n1)CCN2c1cc(Br)cc(C(=O)NC)c1 [Compound I-179] | ≥ 95% | – | –
19 | CNC(=O)Nc1cc2n(n1)CCN(c1cccnc1)C2 [Compound I-86] | 90% | – | –
20 | COc1cc(N2CCc3nc(NC(=O)N[C@@H](CC(=O)OC(C)(C)C)C(=O)O)sc3C2)nc(OC)n1 [Compound I-280] | – | – | inhibition at 10 µM (PI3Kγ, compound at 10 μM): ≥ 95%
21 | CNC(=O)Nc1nc2c(s1)CN(c1cncc(Cl)n1)CC2 [Compound I-123] | ≥ 95% | – | –
22 | CNC(=O)Nc1cc2n(n1)CCN2c1ccccn1 [Compound I-88] | 85% | – | –
23 | CNC(=O)Nc1cc2n(n1)CCN2c1cccc(Cl)c1 [Compound I-67] | ≥ 95% | – | –

Row | SMILES | inhibition at 50 µM (PI3Kγ) | inhibition at 10 µM (compound at 10 μmol/L) | other results
24 | CCCCOc1ccc(C(=O)Nc2cc3n(n2)CCN3c2ccc3c(c2)CCN(C)C3=O)cc1 [Compound I-477] | – | 82% | –
25 | CNC(=O)Nc1cc2n(n1)CCN2c1ccncc1 [Compound I-141] | ≥ 95% | – | –
26 | CNC(=O)Nc1cc2n(n1)CCN2c1cc(Oc2ccccc2)cc(C(=O)N2CCOCC2)c1 [Compound I-223] | 91% | – | –
27 | COCCOc1ccc(C(=O)Nc2cc3n(n2)CCN3c2ccc3c(c2)CCN(C)C3=O)cc1 [Compound I-549] | – | ≥ 95% | –
28 | COC(=O)c1csc(C(=O)Nc2cc3n(n2)CCN3c2ccc3c(c2)CCN(C)C3=O)c1 [Compound I-399] | – | ≥ 95% | –
29 | CNC(=O)Nc1cc2n(n1)CCN2c1ccc(Cl)cc1 [Compound I-102] | ≥ 95% | – | –
30 | CN1CCc2cc(N3CCn4nc(NC(=O)Nc5cccs5)cc43)ccc2C1=O [Compound I-367] | – | 86% | –
31 | CCCOc1ccc(C(=O)Nc2cc3n(n2)CCN3c2ccc3c(c2)CCN(C)C3=O)cc1 [Compound I-476] | – | 94% | –
32 | O=C(O)CC(=O)Nc1cc2n(n1)CCN2c1cccc(Cl)c1 [Compound I-235] | 89% | – | –
33 | CNC(=O)Nc1cc2n(n1)CCN2c1cc(C#Cc2cccnc2)cc(C(=O)N2CCOCC2)c1 [Compound I-254] | 81% | – | –
34 | CC(C)c1cc(C(=O)Nc2cc3n(n2)CCN3c2ccc3c(c2)CCN(C)C3=O)cs1 [Compound I-427] | – | 88% | –
35 | CNC(=O)Nc1cc2n(n1)CCN2c1cccc(C(C)=O)c1 [Compound I-165] | ≥ 95% | – | –
36 | CC(=O)c1ccc(C(=O)Nc2cc3n(n2)CCN3c2ccc3c(c2)CCN(C)C3=O)s1 [Compound I-440] | – | 92% | –
37 | CN1CCc2cc(N3CCn4nc(NC(=O)Cc5ccc(F)cc5)cc43)ccc2C1=O [Compound I-342] | – | 92% | –
38 | CN1CCc2cc(N3CCn4nc(NC(=O)c5ccc(C(=O)O)s5)cc43)ccc2C1=O [Compound I-391] | – | ≥ 95% | –
39 | CN1CCc2cc(N3CCn4nc(NC(=O)c5ccc(C(=O)O)cc5)cc43)ccc2C1=O [Compound I-524] | – | 92% | –
40 | CNC(=O)Nc1cc2n(n1)CCN2c1cc(Br)cc(C(=O)Nc2cccc(C(=O)OC(C)(C)C)c2)c1 [Compound I-175] | 94% | – | –
41 | COc1nc(Cl)cc(N2CCc3nc(NC(=O)NCCC(=O)NC(C)C)sc3C2)n1 [Compound I-554] | – | 88% | –
42 | Cc1ccsc1C(=O)Nc1cc2n(n1)CCN2c1ccc2c(c1)CCN(C)C2=O [Compound I-444] | – | 84% | –
43 | COc1cc(N2CCc3nc(NC(=O)NCCC(=O)N4CCC[C@H]4C(=O)N4CCCC4)sc3C2)nc(OC)n1 [Compound I-312] | – | ≥ 95% | –
44 | CCOC(=O)CCCCC(=O)Nc1cc2n(n1)CCN2c1cccc(OC)c1 [Compound I-307] | – | 86% | –
45 | CNC(=O)Nc1cc2n(n1)CCN2c1ccc(C(=O)OC)c(OC)c1 [Compound I-144] | ≥ 95% | – | –
46 | CN1CCc2cc(N3CCn4nc(NC(=O)c5ccc(N6CCCC6)s5)cc43)ccc2C1=O [Compound I-371] | – | ≥ 95% | –

Row | SMILES | inhibition at 50 µM (PI3Kγ) | inhibition at 10 µM (compound at 10 μmol/L) | other results
47 | COc1cccc(C(=O)Nc2cc3n(n2)CCN3c2cccc(Cl)c2)c1 [Compound I-239] | 92% | – | –
48 | COc1cc(N2CCc3nc(NC(=O)NCCC(=O)N4CCOCC4)sc3C2)nc(OC)n1 [Compound I-207] | ≥ 95% | – | –
49 | CCCNS(=O)(=O)c1ccc(C(=O)Nc2cc3n(n2)CCN3c2ccc3c(c2)CCN(C)C3=O)cc1 [Compound I-526] | – | 90% | –
50 | COc1cc(N2CCc3nc(NC(=O)c4cnco4)sc3C2)nc(OC)n1 [Compound I-204] | 88% | – | –
51 | CC(=O)Nc1cc2n(C(=O)c3ccccc3)ccn2n1 [Compound I-6] | 90% | – | –
52 | CNC(=O)Nc1cc2n(n1)CCN2c1ccc2c(c1)C(=O)CC2 [Compound I-216] | ≥ 95% | – | –
53 | COc1cc(N2CCc3nc(NC(=O)Cc4cc(OC)c(OC)c(OC)c4)sc3C2)nc(OC)n1 [Compound I-268] | – | – | inhibition at 10 µM (PI3Kγ, compound at 10 μM): ≥ 95%
54 | COc1cc(N2CCc3nc(NC(=O)c4ccc(C)s4)sc3C2)nc(OC)n1 [Compound I-458] | – | 92% | –
55 | COc1cc(N2CCc3nc(NC(=O)N4CC(C(=O)NC(C)C)C4)sc3C2)nc(OC)n1 [Compound I-528] | – | 76% | –
56 | COc1cc(N2CCc3nc(NC(=O)C4CCCCC4)sc3C2)nc(OC)n1 [Compound I-552] | – | 88% | –
57 | COCn1ccc(C(=O)Nc2cc3n(n2)CCN3c2ccc3c(c2)CCN(C)C3=O)n1 [Compound I-467] | – | ≥ 95% | –
58 | CNC(=O)Nc1cc2n(n1)CCN2c1cccc(-c2csc(N)n2)c1 [Compound I-192] | ≥ 95% | – | –
59 | CN1CCc2cc(N3CCn4nc(NC(=O)NCC(=O)O)cc43)ccc2C1=O [Compound I-522] | – | 94% | –
60 | CNC(=O)Nc1cc2n(n1)CCN2c1cc(/C=C/c2ccccc2)cc(C(=O)N2CCOCC2)c1 [Compound I-225] | 93% | – | –
61 | CCOC(=O)c1sc(N2CCn3nc(NC(=O)NC)cc32)nc1C [Compound I-196] | 79% | – | –
62 | CNC(=O)Nc1cc2n(n1)CCN2c1cc(Br)cc(C(=O)N(C)C)c1 [Compound I-195] | 93% | – | –
63 | CNC(=O)Nc1cc2n(n1)CCN2c1cccc(O)c1 [Compound I-105] | ≥ 95% | – | –
64 | COc1ccccc1C(=O)N1CCc2nc(NC(=O)Nc3ccccc3C(=O)NC(C)C)sc2C1 [Compound I-485] | – | 79% | –
65 | COC(=O)c1cc(N2CCc3nc(NC(C)=O)sc3C2)nc(Cl)n1 [Compound I-116] | ≥ 95% | – | –
66 | CNC(=O)Nc1cc2n(n1)CCN2c1cncc(OC)c1 [Compound I-79] | ≥ 95% | – | –
67 | COc1cc(N2CCc3nc(NC(=O)NCCCN4CCCC4=O)sc3C2)nc(OC)n1 [Compound I-253] | – | – | inhibition at 10 µM (PI3Kγ, compound at 10 μM): 82%
68 | CN1CCc2cc(N3CCn4nc(NC(=O)c5cnc(Br)s5)cc43)ccc2C1=O [Compound I-377] | – | ≥ 95% | –
69 | CC(C)CCOc1ccc(C(=O)Nc2cc3n(n2)CCN3c2ccc3c(c2)CCN(C)C3=O)cc1 [Compound I-551] | – | 84% | –
